These results are taken from patent publication US20070015741A1, “Novel prodrugs of estradiol” (priority 2005, published 2007).

This series is described as follows: Stability at 40° C./75% RH, prodrug assayed by HPLC for degradation to parent compound estradiol. The series is classed as physicochemical. As to conditions: HPLC assay of prodrug. Here is the method:
The following is an example of stability for the preferred compound described previously. Stability was conducted at 40° C./75% RH, with the prodrug being assayed at specific time-points for degradation to the parent compound, estradiol. The time-points for stability were T=0 months, T=2 weeks, T=1 month, and T=3 months. The following outlines the conditions utilized for analysis of the prodrug. Analysis was conducted using High-Performance Liquid Chromatography (HPLC). The retention time for estradiol lactate acetate was approximately 9.0 minutes using these conditions. Conditions for HPLC analysis: [table]

As to estradiol lactate-acetate, under “T=0 months”, the “Assay (%) T = 0” value is listed as 94.45%. Moreover, where the note is “T=1 month”, the “Assay (%) T = 1” value is on record as 92.77%. Further, the “Assay (%) T = 2 W” value (T=2 weeks) is 93.47%. In addition, for the setting “T=3 months”, the “Assay (%) T = 3” value is reported as 94.3%.
